Key:
[1] = Formation Constant (Log KML) of metal chelant complex with calcium; type: physicochemical; details: formation constant for calcium, concentrations in mol/dm^3, logarithm
Source text: (§1) The Formation Constant of a metal chelant interaction is defined as: [formula] where: [ML]=concentration of metal ligand complex at equilibrium [M]=concentration of free metal ion [L]=concentration of free ligand in a fully deprotonated form KML=formation constant for the metal chelant complex. All concentrations are expressed in mol/dm^3. Formation Constants are conveniently expressed as logarithms.

[2] = Formation Constant (Log KML) of metal chelant complex with copper; type: physicochemical; details: formation constant for copper, concentrations in mol/dm^3, logarithm
Source text: as §1

SMILES | Log KML Ca [1] | Log KML Cu [2]
C[C@H](N)C(=O)O [Alanine] | 1.3 | 8.1
NC(=O)C[C@H](N)C(=O)O [Asparagine] | – | 7.8
O=C(O)CC(NCCNC(CC(=O)O)C(=O)O)C(=O)O (centres unmarked) [EDDS, ethylenediamine-N,N′-disuccinic acid] | 4.6 | 18.4
NC(=O)CC[C@H](N)C(=O)O [Glutamine] | – | 7.7
NCC(=O)O [Glycine] | 1.1 | 8.2
N[C@@H](Cc1c[nH]c2ccccc12)C(=O)O [Tryptophan] | – | 8.2

Next, values leading:

Log KML Ca [1] | Log KML Cu [2] | SMILES
1.2 | 10.2 | N[C@@H](Cc1c[nH]cn1)C(=O)O [Histidine]
– | 8.8 | O=C(O)[C@@H]1CCCN1 [Proline]
1.4 | 7.9 | N[C@@H](CO)C(=O)O [Serine]

— US9642787B2, “Method of inhibiting copper deposition on hair” (The Procter & Gamble Company, priority 2014, dated 2017)
